Tests used:
tactile allodynia = test: Complete Freund's adjuvant model, tactile allodynia by von Frey filaments; format: in vivo, rat; conditions: 48 hours after CFA, mechanical stimulus
Experimental: In a separate method of assessing the effectiveness of representative compounds of the invention against hyperalgesia, animals were tested in the acute model of adjuvant-induced hyperalgesia using Complete Freund's Adjuvant (CFA) as described above, but in this case, tactile allodynia to a mechanical stimulus was measured using calibrated von Frey filaments (Stoelting, Wood Dale, Ill.). Animals were prepared as described above: a solution of Complete Freund's adjuvant (150 microliters of a 50% aqueous solution, Sigma Chemical Company, St. Louis, Mo.) was injected into the plantar surface of test paw of the animal (rat). Rats so injected develop a hyperalgesia to mechanical (touch) stimulation which is assessed 48 hours after injection of the Complete Freund's adjuvant. Withdrawal threshold was determined by increasing and decreasing stimulus intensity, and estimated using the Dixon's up-down method (Dixon, Annual Rev. Pharmacol. Toxicol. (1980) vol. 20, pp. 441-462; Chaplan et al. “Quantitative assessment of tactile allodynia in the rat paw” J. Neuroscience Methods (1994) vol. 53 pp. 55-63). Rats were placed into inverted individual plastic containers (20×12.5×20 cm) on top of a suspended wire mesh with a 1 cm^2 grid to provide access to the ventral side of the hind paws, and acclimated to the test chambers for 20 min. The von Frey filaments were presented perpendicularly to the plantar surface of the selected hind paw, and then held in this position for approximately 8 seconds with enough force to cause a slight bend in the filament. Positive responses included an abrupt withdrawal of the hind paw from the stimulus, or flinching behavior immediately following removal of the stimulus. Withdrawal threshold was determined using an up-down procedure (Dixon, Annual Rev. Pharmacol. Toxicol. (1980) vol. 20, pp. 441-462; Chaplan et al. “Quantitative assessment of tactile allodynia in the rat paw” J. Neuroscience Methods (1994) vol. 53 pp. 55-63). The strength of the maximum filament used for von Frey testing was 15.0 g.

[1] = tested on: mechanical allodynia after skin incision; test: Surgical skin incision model, mechanical allodynia by von Frey hair; format: in vivo, rat
Experimental: This is a surgical skin incision model (Joshi, et al. Pain 123 (2006) 75-82). Animals (rats) were prepared for testing by subjecting them to a surgical procedure carried out under sterile conditions, where the plantaris muscle was elevated and incised longitudinally with the origin and insertion of the muscle remaining intact. The skin was then closed with two mattress sutures (e.g. 5-0 nylon sutures). After surgery, animals were allowed to recover on a warming plate and housed individually in cages with soft bedding. […] Animals were tested for mechanical allodynia using von Frey hair mechanical stimulation 2, 24, and 48 h after surgery as described for the Chung model.

neuropathic pain = test: Chung model: L5/L6 spinal nerve ligation, mechanical allodynia by von Frey filaments; format: in vivo, rat; conditions: 30 minutes before testing
Experimental: Animals were prepared for testing, by use of a surgical procedure that induces neuropathic pain in one paw. Male Sprague Dawley rats were purchased from Charles River (Portage, Mich.). Prior to surgery, animals were housed in groups and maintained in a temperature-regulated environment. Following nerve ligation surgery, animals were housed in groups, and had access to food and water ad libitum.
The L5 and L6 spinal nerves of anesthetized rats were tightly ligated in a manner described previously (see Kim and Chung, Pain (1992) vol. 50 pp. 355-363). An incision was made on the dorsal portion of the hip and the muscle was blunt-dissected to reveal the spinal processes. The L6 transverse process was removed, and the left side L5 and L6 spinal nerves were tightly ligated with 5.0 braided silk suture. The wound was cleaned, the membrane sewn with 4.0 dissolvable Vicryl suture and the skin closed with wound clips. The paw affected by the surgical procedure (the left paw) develops an allodynic response, a hypersensitivity to mechanical and other stimuli; neuropathic pain is assessed as an increased sensitivity in the surgically affected (left) allodynic paw compared to the control paw on the right side, and measured by comparing the response of the (left side) allodynic paw to the response of the unaffected right side control paw.
For the assessment of neuropathic pain, mechanical allodynia in the affected paw of animals that had undergone spinal nerve ligation was evaluated using testing with von Frey filaments. As described previously by S. R. Chaplan, et al (“Quantitative assessment of tactile allodynia in the rat paw” J. Neurosci. Meth. (1994) vol. 53 pp. 55-63), two weeks following surgery rats were acclimated to a testing box constructed of plexiglass with a wire mesh floor which allowed access to the plantar surface of the animal's hindpaws. Using an Up-Down method (Dixon, Annual Rev. Pharmacol. Toxicol. (1980) vol. 20, pp. 441-462; Chaplan et al. “Quantitative assessment of tactile allodynia in the rat paw” J. Neuroscience Methods (1994) vol. 53 pp. 55-63), von Frey filaments of increasing stiffness were applied to the plantar surface of the hindpaws and the withdrawal response of the animals was observed; for the surgically affected paw with neuropathic pain (the left side paw) the baseline level of allodynia has a withdrawal threshold of ≦4 g of pressure. By comparison, for the control paw without allodynia (in this case the right side paw), the typical withdrawal pressure is around 15 g. Representative compounds of the invention, administered intraperitoneally 30 minutes before testing, are able to reduce the symptoms of neuropathic pain and induce a dose-dependent increase in the withdrawal threshold for allodynic (left side) limb, up to a maximum effect of 15 g. The efficacy of the compound in reducing neuropathic pain at different doses is determined by comparing response in the surgery-affected paw versus the response in the control paw. This is expressed as the MPE (maximum percent effect), or 100 times the withdrawal threshold of the allodynic (left side) divided by the withdrawal threshold of the control (right side).

inflammatory pain = test: Carrageenan-induced thermal hyperalgesia, hotbox assay; format: in vivo; conditions: 90 minutes after carrageenan, tested 30 minutes after dosing
Experimental: To assess the effectiveness of representative compounds of the invention against acute model inflammatory pain, animals were tested in an acute model of carrageenan-induced thermal hyperalgesia (see for example, Honore, et al. Behavioural Brain Research 167 (2006) 355-364; Porreca, et al. Journal of Pharmacology and Experimental Therapeutics (2006) vol. 318 pp. 195-205). Carrageenan was injected into the test paw of the animal, and after 90 minutes, the test drug was administered by intraperitoneal dosing. The effect on thermal hyperalgesia was assessed in a hotbox assay which was done 30 minutes after the intraperitoneal dosing of the test drug, and the MPE (maximal percent effect) reported by comparison to the control paw (not injected with carrageenan), according to 100 times the withdrawal latency of the carrageenan injected paw (in seconds) divided by the withdrawal latency of the control (not injected with carrageenan) paw.

SMILES	MPE (tactile allodynia; 30 micromole/kg i.p.) [%]	MPE (tactile allodynia; 100 micromole/kg i.p.) [%]	MPE ([1]; 30 micromole/kg i.p.) [%]	MPE ([1]; 100 micromole/kg i.p.) [%]	MPE (neuropathic pain; 30 micromole/kg i.p.) [%]	MPE (neuropathic pain; 100 micromole/kg i.p.) [%]	MPE (neuropathic pain; 300 micromole/kg i.p.) [%]	MPE (neuropathic pain; 500 micromole/kg i.p.) [%]	MPE (inflammatory pain; 30 micromole/kg i.p.) [%]	MPE (inflammatory pain; 100 micromole/kg i.p.) [%]	MPE (tactile allodynia; 300 micromole/kg i.p.) [%]	MPE ([1]; 250 micromole/kg i.p.) [%]	MPE ([1]; 500 micromole/kg i.p.) [%]	MPE (neuropathic pain; 250 micromole/kg i.p.) [%]	MPE (inflammatory pain; 300 micromole/kg i.p.) [%]
CN1CCN(c2cc(-c3ccc(C#N)cc3)nc(N)n2)CC1.O=C(O)/C=C\C(=O)O [Example 1, 4-(2-Amino-6-(4-methylpiperazin-1-yl)pyrimidin-4-yl)benzonitrile, maleate]	42	63	31	65	14	44	77	97	36	100					
CN1CCN(C(=O)c2cc3cc(Cl)ccc3[nH]2)CC1 [Example 3, reference compound]	55					16		94	23	49	71	46	79	50	96
CNC1CN(c2nc(N)nc3c2CCCc2ccccc2-3)C1 [Example 6, 4-(3-Methylamino-azetidin-1-yl)-6,7-dihydro-5H-benzo[6,7]cyclohepta[1,2-d]pyrimidin-2-ylamine]	35	49	21	69		36	78			41					
